Consider three molecules from patent US7378513B2, “Isolated proteins from a traditional Chinese medicine Yuzhu and use thereof” (priority 2005, dated 2008).

Broadly, the IC50 is the concentration at which inhibition is half-maximal.

The test system of data set [1] is HSV-1 (15577). The experiment in a line: microbe, parasite or virus in culture. It is filed as cell-based, Herpes Simplex Virus. As to conditions: Human alphaherpesvirus 1, CPE method.
In data set [2] the test system is HSV-1 (15577). The experiment in a line: microbe, parasite or virus in culture. As to conditions: Human alphaherpesvirus 1; plaque reduction assay, Vero cells; M2 value is the average of two. It is filed as cell-based, Herpes Simplex Virus.
The subject of the next data set is HSV-2. The experiment in a line: Cytopathic effect (CPE) inhibition assay, HSV-2. It counts as cell-based, Herpes Simplex Virus. To be noted: Human alphaherpesvirus 2; CPE method, Vero cells. For orientation: Protection from cytopathic effect is a common read-out in antiviral testing.
Data set [3] deals with RSV (long strain). The experiment in a line: microbe, parasite or virus in culture. As to conditions: CPE method; for IC50: human respiratory syncytial virus. It is filed as cell-based, respiratory syncytial virus.
For data set [4], the system named is RSV (long strain). The experiment in a line: microbe, parasite or virus in culture. It counts as cell-based. As to conditions: human respiratory syncytial virus; plaque reduction assay. In general terms: Plaques are areas of infected cells; plaque reduction assays count them against a control.
The next data set deals with rabbit erythrocytes. The experiment in a line: Hemagglutinating test, rabbit red blood cells. It is filed as cell-based. As to the method:
The assay was carried out in a U-shape microtiter plate as described previously (Ooi et al., 1998). […] Specific hemagglutinating activity was expressed as the number of hemagglutinating units per mg protein in Table 3. Rabbit, human (ABO groups), and chicken red blood cells were used for hemagglutinating test. Concanavalin A (ConA) was used as a positive control, and phosphate-buffered saline (PBS, 0.1M, pH7.4) as a negative control. A serial twofold dilution of the lectin solution (in PBS) in microtitre U-plates (50 μl) was mixed with 50 μl of a 2% suspension of red blood cells in PBS at room temperature. The results were read after about one hour when the blank (with red blood cells and buffer only) had fully sedimented.

Values after ≈ are worked out from the molar mass of the structure shown. Where two headings read alike, the source gives them in different places.

Take `Nc1nc2c(ncn2COCCO)c(=O)[nH]1` [Acyclovir]: the IC50 turned out to be 0.25 µg/mL (≈ 1.11 µM) in the data set with HSV-1 (15577) [1] (Vero cells, Table 4a Yuzhu (Dried Herbs)); 0.25 µg/mL (≈ 1.11 µM) with HSV-1 (15577) [1] (Table 4b Yuzhu (Fresh Herbs)); 0.15 µg/mL (≈ 0.666 µM) in the data set on HSV-1 (15577) [2]; 0.35 µg/mL (≈ 1.55 µM) in the data set on HSV-2.

Regarding `NC(=O)c1ncn([C@@H]2O[C@H](CO)[C@@H](O)[C@H]2O)n1` [Ribavirin], the “IC50 RSV (long strain)” value in the data set with RSV (long strain) [3] (Hep2 cells, Table 4a Yuzhu (Dried Herbs), listed as Ribvirin) is “(6.3) μg/ml”. The 50% inhibitory concentration (IC50) in the data set with RSV (long strain) [3] (HEp-2, Hep2 cells, Table 4a Yuzhu (Dried Herbs), read-out: IC50 RSV (long strain)) was 6.3 µg/mL (≈ 25.8 µM); in the data set on RSV (long strain) [3] (Table 4b Yuzhu (Fresh Herbs), read-out: IC50 RSV), 6.3 µg/mL (≈ 25.8 µM); in the data set on RSV (long strain) [4], 3.3 µg/mL (≈ 13.5 µM).

As to Concanavalin A [ConA], the Specific hemagglutinating activity in the data set with rabbit erythrocytes is given as 12,800 U/mg protein.
